Reference: patent publication US6492344B1, “Syndecan enhancer element and syndecan stimulation of cellular differentiation” (Biotie Therapies Corp., priority 1993, dated 2002)

Assays:
syndecan-1 gene = test: Syndecan-1 mRNA quantification in 3T3NIH cells exposed to FGF-2; assay type: cell-based, mouse; conditions: 3T3NIH cells, 10 ng/ml FGF-2
Source text: Northern Blot—RNA was isolated from 3T3 and NMuMG cells using 4 M guanidine isothiocyanate and CsCl density centrifugation (Chirgwin et al., Biochemistry 18:5294-5299 (1979)). RNA samples were size-separated on a 1% agarose formaldehyde gel, transferred to a GeneScreen Plus™ membrane (New England Nuclear) and hybridized with a multi-prime (Amersham) labeled partial cDNA clone for mouse syndecan (PM-4) (Saunders et al., J. Cell Biol. 108:1547-1556 (1989)). After hybridization, the membrane was washed in 2×SSC and 1.0% SDS at 65° C. (high stringency conditions). For rehybridization with glyceraldehyde-3-phosphate-dehydrogenase (GAPDH; Fort et al., Nucleic Acid Res. 13:1431-1442 (1985)), the bound PM-4 probe was removed as recommended by the manufacturer of the filter (NEN).
Following incubation with FGF-2, syndecan MRNA was isolated and quantified. Control incubations without FGF-2 were also performed. Syndecan mRNA was isolated and quantified […] FGF-2 treatment following 6, 12, and 24 hr incubations. The quantification of syndecan mRNA production can be seen in FIG. 11a. GAPDH mRNA was used as a loading control. […] The enhancement appears to be maximal at about 6 hrs of FGF-2 incubation, and decreases thereafter. In the Figure, two individual exposures for each time point are presented.

[1] = tested on: FGF-inducible Response Element (FiRE); test: pFiRE CAT reporter in syndecan-1 transfected 3T3 cells (3T3 1.5); assay type: cell-based, mouse; conditions: 3T3 1.5 cells expressing high levels of syndecan-1, versus wild type 3T3
Source text: The Enhancer is Not Functional in 3T3 Cells Expressing High Levels of Syndecan-1. Syndecan-1 transfected 3T3 cells (3T3 1.5) and wild type 3T3 cells were transiently transfected with the pFiRE construct, treated with FGF or a negative control, and analyzed for reporter gene (CAT) expression. The results are depicted in FIG. 16. The closed columns indicate relative CAT activity in control cells (without FGF treatment) while the labeled columns depict relative CAT activity in FGF-treated cells.

FGF-2: Basic fibroblast growth factor (FGF-2 or bFGF); recombinant human
time of maximal enhancement of syndecan mRNA (syndecan-1 gene): about 6 hrs
syndecan mRNA expression (syndecan-1 gene; after 4 hrs): significantly enhanced (several fold)
activation of CAT expression from pFiRE [1]: significantly reduced
